Target: MDM2 (Homo sapiens, UniProt Q00987)
Assay: HTRF assay of inhibition of the p53-MDM2 interaction
Assay type: binding
Conditions: GST-MDM2 / biotinylated p53 peptide, bsa 0.02%
Method: The ability of the compounds to inhibit the interaction between p53 and MDM2 proteins was measured by an HTRF (homogeneous time-resolved fluorescence) assay in which recombinant GST-tagged MDM2 binds to a peptide that resembles the MDM2-interacting region of p53 (Lane et al.). Binding of GST-MDM2 protein and p53-peptide (biotinylated on its N-terminal end) is registered by the FRET (fluorescence resonance energy transfer) between Europium (Eu)-labeled anti-GST antibody and streptavidin-conjugated Allophycocyanin (APC).
[…] Add 10 uL diluted compounds (1:5 dilution in reaction buffer) to each well, mix by shaking. Add 20 uL biotinylated p53 peptide (180 nM working solution) in reaction buffer to each well and mix on shaker. Incubate at 37° C. for 1 h. Add 20 uL streptavidin-APC and Eu-anti-GST antibody mixture (6 nM Eu-anti-GST and 60 nM streptavidin-APC working solution) in TBS buffer with 0.2% BSA, shake at room temperature for 30 minutes and read using a TRF-capable plate reader at 665 and 615 nm (Victor 5, Perkin ElmerWallac). If not specified, the reagents were purchased from Sigma Chemical Co.

MDM2, sequence (Q00987 whole entry, species assumed): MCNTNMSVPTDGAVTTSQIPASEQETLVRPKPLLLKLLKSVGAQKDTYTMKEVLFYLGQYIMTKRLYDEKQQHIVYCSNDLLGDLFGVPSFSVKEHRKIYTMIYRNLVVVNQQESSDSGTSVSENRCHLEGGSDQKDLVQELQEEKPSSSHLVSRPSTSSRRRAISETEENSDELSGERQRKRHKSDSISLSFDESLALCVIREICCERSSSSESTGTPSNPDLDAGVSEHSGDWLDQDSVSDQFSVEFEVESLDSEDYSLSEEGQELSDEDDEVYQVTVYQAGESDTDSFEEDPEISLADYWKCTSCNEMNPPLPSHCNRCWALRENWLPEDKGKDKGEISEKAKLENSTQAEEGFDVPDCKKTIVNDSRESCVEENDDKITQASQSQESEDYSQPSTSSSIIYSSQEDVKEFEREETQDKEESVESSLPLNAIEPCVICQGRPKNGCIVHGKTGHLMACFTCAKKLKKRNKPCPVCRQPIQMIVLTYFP

Row | SMILES | IC50 [nM]
1 | CC(C)(C)C[C@@H]1N[C@@H](C(=O)NCC[C@H](O)CO)[C@H](c2cccc(Cl)c2)[C@@]1(C#N)c1cc(Br)cs1 (mixture of isomers) [Example 7, rac-(2R,3R,4R,5S)-4-(4-bromo-thiophen-2-yl)-3-(3-chloro-phenyl)-4-cyano-5-(2,2-dimethyl-propyl)-pyrrolidine-2-carboxylic acid ((S)-3,4-dihydroxy-butyl)-amide] | 5860
2 | CC(C)(C)C[C@@H]1N[C@@H](C(=O)NCC[C@H](O)CO)[C@H](c2cccc(Cl)c2)[C@@]1(C#N)c1ccc(Cl)nc1 (mixture of isomers) [Example 44, rac-(2R,3R,4R,5S)-3-(3-chloro-phenyl)-4-(6-chloro-pyridin-3-yl)-4-cyano-5-(2,2-dimethyl-propyl)-pyrrolidine-2-carboxylic acid ((S)-3,4-dihydroxy-butyl)-amide] | 61

More lines, in order of falling IC50, values ahead:

Row | IC50 [nM] | SMILES
3 | 1970 | CC(C)(C)C[C@@H]1N[C@@H](C(=O)NCC[C@H](O)CO)[C@H](c2cccc(Cl)c2)[C@@]1(C#N)c1cccnc1 (mixture of isomers) [Example 39, rac-(2R,3R,4R,5S)-3-(3-chloro-phenyl)-4-cyano-5-(2,2-dimethyl-propyl)-4-pyridin-3-yl-pyrrolidine-2-carboxylic acid ((S)-3,4-dihydroxy-butyl)-amide]
4 | 1230 | CC(C)(C)C[C@@H]1N[C@@H](C(=O)NCC[C@H](O)CO)[C@H](c2cccc(Cl)c2F)[C@@]1(C#N)c1ncc(Cl)cc1F (mixture of isomers) [Example 25, rac-(2R,3S,4S,5S)-3-(3-chloro-2-fluoro-phenyl)-4-(5-chloro-3-fluoro-pyridin-2-yl)-4-cyano-5-(2,2-dimethyl-propyl)-pyrrolidine-2-carboxylic acid ((S)-3,4-dihydroxy-butyl)-amide]
5 | 201 | COC(=O)c1ccc(NC(=O)[C@@H]2N[C@@H](CC(C)(C)C)[C@](C#N)(c3ccc(Br)cn3)[C@H]2c2cccc(Cl)c2F)cc1 (racemic) [Example 34, rac-4-{[(2R,3S,4S,5S)-4-(5-bromo-pyridin-2-yl)-3-(3-chloro-2-fluoro-phenyl)-4-cyano-5-(2,2-dimethyl-propyl)-pyrrolidine-2-carbonyl]-amino}-benzoic acid methyl ester]

From US20110118283A1, “Substituted Pyrrolidine-2-Carboxamides” (priority 2009, published 2011)
